Results reported in paper PMC8371902, “Phase 1 study of M2698, a p70S6K/AKT dual inhibitor, in patients with advanced cancer” (Journal of Hematology & Oncology, 2021).
Where two headings read alike, the source gives them in different places.

System: patients with advanced metastatic cancer
Description: In this phase 1 study, dose escalation was followed by expansion cohorts of once-daily, oral M2698 in continuous 21-day cycles. Primary objectives were to determine the maximum tolerated dose (MTD), dose-limiting toxicities (DLTs), and recommended phase 2 dose (RP2D). Secondary objectives were to assess safety and tolerability, pharmacokinetics (PK, including food effect) and antitumor activity. Pharmacodynamic biomarker assessments were exploratory. Treatment was discontinued if there was disease progression, toxicity or consent withdrawal.
In Part 1, M2698 monotherapy was investigated in a dose escalation with a food effect cohort. In Part 2, M2698 was investigated as monotherapy (expansion cohort) to further characterize safety, tolerability and pharmacokinetics, and assess antitumor activity in PAM + patients without confounding markers (exploratory).
Dose escalation analysis included all patients who experienced a DLT and those who received ≥ 80% of planned M2698 doses in cycle 1 without experiencing a DLT. Safety analysis included all patients who received ≥ 1 dose of M2698. PK analysis included all patients who received ≥ 1 dose of M2698 and had measurable plasma concentrations. Dose proportionality was tested using the power model (linear regression approach on the log -transformed scale).

## NC(=O)c1cccc2c(N[C@H](CN3CCC3)c3ccc(Cl)c(C(F)(F)F)c3)ncnc12 [M2698]
15 mg n=3
  M2698-related TEAE: Abnormal dreams: 0
  M2698-related TEAE: Affect lability: 0
  M2698-related TEAE: Alanine aminotransferase increased: 0
  M2698-related TEAE: Amylase increased: 0
  M2698-related TEAE: Anaemia: 0
  M2698-related TEAE: Angina pectoris: 0
  M2698-related TEAE: Anxiety: 0
  M2698-related TEAE: Aphasia: 0
  M2698-related TEAE: Ataxia: 0
  M2698-related TEAE: Blood and lymphatic system disorders: 0
  M2698-related TEAE: Blood creatine phosphokinase increased: 0
  M2698-related TEAE: Blood creatinine increased: 0
  M2698-related TEAE: Cardiac disorders: 0
  M2698-related TEAE: Cognitive disorder: 0
  M2698-related TEAE: Constipation: 0
  M2698-related TEAE: Decreased appetite: 0
  M2698-related TEAE: Delusion: 0
  M2698-related TEAE: Depression: 0
  M2698-related TEAE: Diarrhoea: 0
  M2698-related TEAE: Diarrhoea haemorrhagic: 0
  M2698-related TEAE: Dizziness: 0
  M2698-related TEAE: Dry eye: 0
  M2698-related TEAE: Dry mouth: 0
  M2698-related TEAE: Dysgeusia: 0
  M2698-related TEAE: Dyspepsia: 0
  M2698-related TEAE: Dysphagia: 0
  M2698-related TEAE: Energy increased: 0
  M2698-related TEAE: Erythema: 0
  M2698-related TEAE: Euphoric mood: 0
  M2698-related TEAE: Eye disorders: 0
  M2698-related TEAE: Fatigue: 0
  M2698-related TEAE: Gamma-glutamyltransferase increased: 1
  M2698-related TEAE: Gastrointestinal disorders: 0
  M2698-related TEAE: Gastrooesophageal reflux disease: 0
  M2698-related TEAE: General disorders and administration site conditions: 0
  M2698-related TEAE: Headache: 0
  M2698-related TEAE: Hyperhidrosis: 0
  M2698-related TEAE: Hypokalaemia: 0
  M2698-related TEAE: Hypomagnesaemia: 0
  M2698-related TEAE: Insomnia: 0
  M2698-related TEAE: Investigations: 1
  M2698-related TEAE: Lipase increased: 0
  M2698-related TEAE: Lymphopenia: 0
  M2698-related TEAE: Metabolism and nutrition disorders: 0
  M2698-related TEAE: Mucosal inflammation: 0
  M2698-related TEAE: Nausea: 0
  M2698-related TEAE: Nervous system disorders: 0
  M2698-related TEAE: Nightmare: 0
  M2698-related TEAE: Onychomadesis: 0
  M2698-related TEAE: Paranoia: 0
  M2698-related TEAE: Photosensitivity reaction: 0
  M2698-related TEAE: Posterior reversible encephalopathy syndrome: 0
  M2698-related TEAE: Pruritus generalised: 0
  M2698-related TEAE: Psychiatric disorders: 0
  M2698-related TEAE: Rash: 0
  M2698-related TEAE: Rash maculo-papular: 0
  M2698-related TEAE: Skin and subcutaneous tissue disorders: 0
  M2698-related TEAE: Subjects with at least one event: 1
  M2698-related TEAE: Transaminases increased: 0
  M2698-related TEAE: Tremor: 0
  M2698-related TEAE: Vision blurred: 0
  M2698-related TEAE: Vomiting: 0
  M2698-related TEAE: White blood cell count decreased: 0
30 mg n=3
  M2698-related TEAE: Abnormal dreams: 0
  M2698-related TEAE: Affect lability: 0
  M2698-related TEAE: Alanine aminotransferase increased: 0
  M2698-related TEAE: Amylase increased: 0
  M2698-related TEAE: Anaemia: 0
  M2698-related TEAE: Angina pectoris: 0
  M2698-related TEAE: Anxiety: 0
  M2698-related TEAE: Aphasia: 0
  M2698-related TEAE: Ataxia: 0
  M2698-related TEAE: Blood and lymphatic system disorders: 0
  M2698-related TEAE: Blood creatine phosphokinase increased: 0
  M2698-related TEAE: Blood creatinine increased: 0
  M2698-related TEAE: Cardiac disorders: 0
  M2698-related TEAE: Cognitive disorder: 0
  M2698-related TEAE: Constipation: 0
  M2698-related TEAE: Decreased appetite: 0
  M2698-related TEAE: Delusion: 0
  M2698-related TEAE: Depression: 0
  M2698-related TEAE: Diarrhoea: 1
  M2698-related TEAE: Diarrhoea haemorrhagic: 0
  M2698-related TEAE: Dizziness: 0
  M2698-related TEAE: Dry eye: 0
  M2698-related TEAE: Dry mouth: 0
  M2698-related TEAE: Dysgeusia: 0
  M2698-related TEAE: Dyspepsia: 0
  M2698-related TEAE: Dysphagia: 0
  M2698-related TEAE: Energy increased: 0
  M2698-related TEAE: Erythema: 0
  M2698-related TEAE: Euphoric mood: 0
  M2698-related TEAE: Eye disorders: 1
  M2698-related TEAE: Fatigue: 0
  M2698-related TEAE: Gamma-glutamyltransferase increased: 0
  M2698-related TEAE: Gastrointestinal disorders: 1
  M2698-related TEAE: Gastrooesophageal reflux disease: 0
  M2698-related TEAE: General disorders and administration site conditions: 0
  M2698-related TEAE: Headache: 0
  M2698-related TEAE: Hyperhidrosis: 0
  M2698-related TEAE: Hypokalaemia: 1
  M2698-related TEAE: Hypomagnesaemia: 0
  M2698-related TEAE: Insomnia: 0
  M2698-related TEAE: Investigations: 0
  M2698-related TEAE: Lipase increased: 0
  M2698-related TEAE: Lymphopenia: 0
  M2698-related TEAE: Metabolism and nutrition disorders: 1
  M2698-related TEAE: Mucosal inflammation: 0
  M2698-related TEAE: Nausea: 0
  M2698-related TEAE: Nervous system disorders: 0
  M2698-related TEAE: Nightmare: 0
  M2698-related TEAE: Onychomadesis: 0
  M2698-related TEAE: Paranoia: 0
  M2698-related TEAE: Photosensitivity reaction: 0
  M2698-related TEAE: Posterior reversible encephalopathy syndrome: 0
  M2698-related TEAE: Pruritus generalised: 0
  M2698-related TEAE: Psychiatric disorders: 0
  M2698-related TEAE: Rash: 0
  M2698-related TEAE: Rash maculo-papular: 1
  M2698-related TEAE: Skin and subcutaneous tissue disorders: 1
  M2698-related TEAE: Subjects with at least one event: 2
  M2698-related TEAE: Transaminases increased: 0
  M2698-related TEAE: Tremor: 0
  M2698-related TEAE: Vision blurred: 1
  M2698-related TEAE: Vomiting: 0
  M2698-related TEAE: White blood cell count decreased: 0
60 mg n=6
  M2698-related TEAE: Abnormal dreams: 0
  M2698-related TEAE: Affect lability: 1
  M2698-related TEAE: Alanine aminotransferase increased: 1
  M2698-related TEAE: Amylase increased: 1
  M2698-related TEAE: Anaemia: 0
  M2698-related TEAE: Angina pectoris: 1
  M2698-related TEAE: Anxiety: 0
  M2698-related TEAE: Aphasia: 0
  M2698-related TEAE: Ataxia: 0
  M2698-related TEAE: Blood and lymphatic system disorders: 0
  M2698-related TEAE: Blood creatine phosphokinase increased: 0
  M2698-related TEAE: Blood creatinine increased: 0
  M2698-related TEAE: Cardiac disorders: 1
  M2698-related TEAE: Cognitive disorder: 0
  M2698-related TEAE: Constipation: 0
  M2698-related TEAE: Decreased appetite: 0
  M2698-related TEAE: Delusion: 0
  M2698-related TEAE: Depression: 0
  M2698-related TEAE: Diarrhoea: 0
  M2698-related TEAE: Diarrhoea haemorrhagic: 0
  M2698-related TEAE: Dizziness: 0
  M2698-related TEAE: Dry eye: 0
  M2698-related TEAE: Dry mouth: 0
  M2698-related TEAE: Dysgeusia: 0
  M2698-related TEAE: Dyspepsia: 0
  M2698-related TEAE: Dysphagia: 0
  M2698-related TEAE: Energy increased: 0
  M2698-related TEAE: Erythema: 0
  M2698-related TEAE: Euphoric mood: 0
  M2698-related TEAE: Eye disorders: 0
  M2698-related TEAE: Fatigue: 0
  M2698-related TEAE: Gamma-glutamyltransferase increased: 0
  M2698-related TEAE: Gastrointestinal disorders: 0
  M2698-related TEAE: Gastrooesophageal reflux disease: 0
  M2698-related TEAE: General disorders and administration site conditions: 0
  M2698-related TEAE: Headache: 0
  M2698-related TEAE: Hyperhidrosis: 0
  M2698-related TEAE: Hypokalaemia: 0
  M2698-related TEAE: Hypomagnesaemia: 0
  M2698-related TEAE: Insomnia: 0
  M2698-related TEAE: Investigations: 1
  M2698-related TEAE: Lipase increased: 1
  M2698-related TEAE: Lymphopenia: 0
  M2698-related TEAE: Metabolism and nutrition disorders: 0
  M2698-related TEAE: Mucosal inflammation: 0
  M2698-related TEAE: Nausea: 0
  M2698-related TEAE: Nervous system disorders: 0
  M2698-related TEAE: Nightmare: 0
  M2698-related TEAE: Onychomadesis: 1
  M2698-related TEAE: Paranoia: 0
  M2698-related TEAE: Photosensitivity reaction: 0
  M2698-related TEAE: Posterior reversible encephalopathy syndrome: 0
  M2698-related TEAE: Pruritus generalised: 0
  M2698-related TEAE: Psychiatric disorders: 1
  M2698-related TEAE: Rash: 0
  M2698-related TEAE: Rash maculo-papular: 0
  M2698-related TEAE: Skin and subcutaneous tissue disorders: 1
  M2698-related TEAE: Subjects with at least one event: 2
  M2698-related TEAE: Transaminases increased: 0
  M2698-related TEAE: Tremor: 0
  M2698-related TEAE: Vision blurred: 0
  M2698-related TEAE: Vomiting: 0
  M2698-related TEAE: White blood cell count decreased: 0
60 mg, n = 1, resolved following treatment interruption
  DLT observed: grade 3 lipase increase
75 mg n=4
  M2698-related TEAE: Abnormal dreams: 1
  M2698-related TEAE: Affect lability: 0
  M2698-related TEAE: Alanine aminotransferase increased: 0
  M2698-related TEAE: Amylase increased: 0
  M2698-related TEAE: Anaemia: 0
  M2698-related TEAE: Angina pectoris: 0
  M2698-related TEAE: Anxiety: 0
  M2698-related TEAE: Aphasia: 0
